Test results from patent US10278942B2 (PELOTON THERAPEUTICS, INC., priority 2015, dated 2019).

Columns and labels:
[1] = target: T1, HIF-2α HIS TAG-PASB Domain (Homo sapiens, UniProt Q99814); test: HIF-2α Scintillation Proximity Assay (SPA); format: binding; conditions: read-out: Scintillation Proximity Assay IC50
T1 construct: 100 nM HIF-2α HIS TAG-PASB Domain
Outline: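 IC50 values rest on percent inhibition, where the sample signal is scaled between high and low controls. Wells contain about 100 μL: compound dispensed as 2 μL of DMSO solution, 88 μL protein-probe mix and 10 μL of beads.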

[2] = test system: 786-O-Hif-Luc cells; test: Luciferase Assay (HIF responsive elements reporter); conditions: read-out: Mean Luciferase EC50 (nM), 786-O-Hif-Luc cells
Procedure: A pool of infected cells were then selected against 2 μg/mL of puromycin (P8833, Sigma) for 10 days followed by limited dilution to select single clones. […] Each concentration was tested in triplicate. After about 24 hours, luciferase activity was determined using ONE-Glo Luciferase Assay Reagent (E6110, Promega) following the manufacturer's recommended procedure. EC50 were calculated using Dotmatics software.

T1 sequence (Q99814 240-350 limits assumed): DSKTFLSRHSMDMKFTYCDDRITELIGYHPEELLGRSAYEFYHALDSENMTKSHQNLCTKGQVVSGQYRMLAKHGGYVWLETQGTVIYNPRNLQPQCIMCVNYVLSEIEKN

Row | SMILES | IC50 [1] | EC50 [2]
1 | O=S(=O)(c1ccc(OCCO)c2c1C(O)C(F)(F)C2)C(F)(F)F (centres unmarked) [Compound 614] | 50 to 249 nM | > 1000 nM
2 | O=S(=O)(c1ccc(OC2CCCCC2)c2c1C(O)CC2)C(F)(F)F (centres unmarked) [Compound 616] | 50 to 249 nM | 250 to 1000 nM
3 | O=S(=O)(c1ccc(OC2CCC(O)CC2)c2c1C(O)C(F)(F)C2)C(F)(F)F (centres unmarked) [Compound 618] | > 1000 nM | > 1000 nM
4 | N#CC1(COc2ccc(S(=O)(=O)C(F)(F)F)c3c2CCC3O)CC1 (centres unmarked) [Compound 619] | > 1000 nM | > 1000 nM
5 | CC1(COc2ccc(S(=O)(=O)C(F)(F)F)c3c2CC(F)(F)C3O)COC1 (centres unmarked) [Compound 622] | 250 to 1000 nM | 250 to 1000 nM
6 | CC1CC(Oc2ccc(S(=O)(=O)C(F)(F)F)c3c2CC(F)(F)C3O)CCO1 (centres unmarked) [Compound 623] | < 50 nM | 50 to 249 nM
7 | COC(C)COc1ccc(S(=O)(=O)C(F)(F)F)c2c1CC(F)(F)C2O (centres unmarked) [Compound 626] | < 50 nM | 50 to 249 nM
8 | CS(=O)(=O)NCCOc1ccc(S(=O)(=O)C(F)(F)F)c2c1CC(F)(F)C2O (centres unmarked) [Compound 637] | 250 to 1000 nM | > 1000 nM
9 | COC(=O)COc1ccc(S(=O)(=O)C(F)(F)F)c2c1CC(F)(F)C2O (centres unmarked) [Compound 639] | > 1000 nM | > 1000 nM
10 | O=S(=O)(c1ccc(O[C@H]2C[C@H](O)C2)c2c1C(O)C(F)(F)C2)C(F)(F)F (some centres unmarked) [Compound 644] | 250 to 1000 nM | 250 to 1000 nM
11 | COC[C@H](C)Oc1ccc(S(=O)(=O)C(F)(F)F)c2c1CC(F)(F)[C@H]2O [Compound 660] | 50 to 249 nM | 250 to 1000 nM
12 | N#CC1(COc2ccc(S(=O)(=O)C(F)(F)F)c3c2C[C@@H](F)[C@H]3O)CC1 [Compound 661] | < 50 nM | < 50 nM
13 | O=S(=O)(c1ccc(OCc2ccccc2)c2c1C(O)C(F)(F)C2)C(F)(F)F (centres unmarked) [Compound 663] | 50 to 249 nM | 250 to 1000 nM
14 | O=S(=O)(c1ccc(OCc2ccccn2)c2c1C(O)C(F)(F)C2)C(F)(F)F (centres unmarked) [Compound 665] | > 1000 nM | > 1000 nM
15 | O/N=C1/c2c(C(F)(F)F)ccc(OCC(F)F)c2[C@@H](F)C1(F)F [Compound 669] | 50 to 249 nM | 250 to 1000 nM
16 | O[C@H]1c2c(C(F)(F)F)ccc(OC(F)F)c2CC1(F)F [Compound 670] | > 1000 nM | > 1000 nM
17 | O/N=C1/c2c(C(F)(F)F)ccc(OC3CC(F)(F)C3)c2CC1(F)F [Compound 672] | 50 to 249 nM | > 1000 nM
18 | O=S(=O)(c1ccc(OCC(F)(F)F)c2c1[C@H](O)C(F)(F)C2)C(F)(F)F [Compound 675] | < 50 nM | < 50 nM
19 | CCOc1ccc(S(=O)(=O)C(F)F)c2c1CC(F)(F)[C@H]2O [Compound 678] | 250 to 1000 nM | 250 to 1000 nM
20 | OC1c2c(I)ccc(OCC(F)F)c2CC1(F)F (centres unmarked) [Compound 681] | 50 to 249 nM | 50 to 249 nM
21 | CCCOc1ccc(I)c2c1CC(F)(F)C2O (centres unmarked) [Compound 682] | 50 to 249 nM | 250 to 1000 nM
22 | CCCOc1ccc(I)c2c1C[C@@H](F)[C@H]2O [Compound 683] | > 1000 nM | > 1000 nM
23 | OC1c2c(C(F)(F)F)ccc(OCC(F)F)c2CC1(F)F (centres unmarked) [Compound 686] | 50 to 249 nM | 50 to 249 nM
24 | NC(=O)C1CCc2c(OCC(F)F)ccc(C(F)(F)F)c21 (centres unmarked) [Compound 692] | > 1000 nM | > 1000 nM
25 | OC1CCc2c(OCC(F)F)ccc(C(F)(F)F)c21 (centres unmarked) [Compound 696] | 50 to 249 nM | 50 to 249 nM

Row | SMILES | IC50 [1] | EC50 [2]
26 | O[C@H]1c2c(C(F)(F)F)ccc(OCC(F)F)c2C[C@@H]1F [Compound 697] | 50 to 249 nM | 50 to 249 nM
27 | O[C@H]1c2c(C(F)(F)F)ccc(OCC(F)F)c2[C@@H](F)C1(F)F [Compound 699] | < 50 nM | 50 to 249 nM
28 | O[C@H]1c2c(C(F)(F)F)ccc(OCCCF)c2[C@H](F)C1(F)F [Compound 701] | 50 to 249 nM | > 1000 nM
29 | CCCOc1ccc(C(F)(F)F)c2c1CC(F)(F)/C2=N\O [Compound 703] | 250 to 1000 nM | > 1000 nM
30 | CCCOc1ccc(C(F)(F)F)c2c1CC(F)(F)[C@H]2O [Compound 704] | < 50 nM | < 50 nM
31 | N#CCC1(COc2ccc(S(=O)(=O)C(F)(F)F)c3c2CC(F)(F)[C@H]3O)COC1 [Compound 707] | 250 to 1000 nM | 250 to 1000 nM
32 | C#CCOc1ccc(S(=O)(=O)C(F)(F)F)c2c1CC(F)(F)[C@H]2O [Compound 711] | 250 to 1000 nM | 250 to 1000 nM
33 | CO[C@H]1C[C@H](Oc2ccc(S(=O)(=O)C(F)(F)F)c3c2CC(F)(F)[C@H]3O)C1 [Compound 714] | 50 to 249 nM | 250 to 1000 nM
34 | CO[C@H]1C[C@@H](Oc2ccc(S(=O)(=O)C(F)(F)F)c3c2CC(F)(F)[C@H]3O)C1 [Compound 715] | < 50 nM | 50 to 249 nM
35 | O=S(=O)(c1ccc(OCC2CCC2)c2c1[C@H](O)C(F)(F)C2)C(F)(F)F [Compound 716] | < 50 nM | < 50 nM
36 | CC(C)CCOc1ccc(S(=O)(=O)C(F)(F)F)c2c1CC(F)(F)[C@H]2O [Compound 717] | 50 to 249 nM | 50 to 249 nM
37 | O=S(=O)(c1ccc(OC2CC3(COC3)C2)c2c1[C@H](O)C(F)(F)C2)C(F)(F)F [Compound 718] | 50 to 249 nM | 250 to 1000 nM
38 | O=S1(=O)CCC(Oc2ccc(S(=O)(=O)C(F)(F)F)c3c2CC(F)(F)[C@H]3O)CC1 [Compound 721] | > 1000 nM | > 1000 nM
39 | CC(C)(COc1ccc(S(=O)(=O)C(F)(F)F)c2c1CC(F)(F)[C@H]2O)S(C)(=O)=O [Compound 723] | > 1000 nM | > 1000 nM
40 | N[C@H]1C[C@@H](Oc2ccc(S(=O)(=O)C(F)(F)F)c3c2CC(F)(F)[C@H]3O)C1 [Compound 724] | > 1000 nM | > 1000 nM
41 | CC(=O)N[C@H]1C[C@@H](Oc2ccc(S(=O)(=O)C(F)(F)F)c3c2CC(F)(F)[C@H]3O)C1 [Compound 725] | > 1000 nM | > 1000 nM
42 | CS(=O)(=O)N[C@H]1C[C@@H](Oc2ccc(S(=O)(=O)C(F)(F)F)c3c2CC(F)(F)[C@H]3O)C1 [Compound 726] | > 1000 nM | > 1000 nM
43 | O=S(=O)(c1ccc(OC[C@H]2CC2(F)F)c2c1[C@H](O)C(F)(F)C2)C(F)(F)F [Compound 727] | < 50 nM | < 50 nM
44 | O=S(=O)(c1ccc(OCC2CC2(F)F)c2c1[C@H](O)C(F)(F)C2)C(F)(F)F (some centres unmarked) [Compound 728] | < 50 nM | < 50 nM
45 | O=S(=O)(c1ccc(O[C@@H]2CCCOC2)c2c1[C@H](O)C(F)(F)C2)C(F)(F)F [Compound 730] | 50 to 249 nM | 50 to 249 nM
46 | O=S(=O)(c1ccc(O[C@H]2CCCOC2)c2c1[C@H](O)C(F)(F)C2)C(F)(F)F [Compound 731] | < 50 nM | 50 to 249 nM
47 | CS(=O)(=O)c1ccc(O[C@H]2C[C@@H](O)C2)c2c1[C@H](O)C(F)(F)[C@@H]2F [Compound 735] | 250 to 1000 nM | > 1000 nM
48 | CS(=O)(=O)c1ccc(O[C@H]2C[C@H](F)C2)c2c1[C@H](O)C(F)(F)[C@H]2F [Compound 737] | 50 to 249 nM | > 1000 nM
49 | CS(=O)(=O)c1ccc(O[C@H]2C[C@@](F)(C#N)C2)c2c1[C@H](O)C(F)(F)[C@@H]2F [Compound 739] | < 50 nM | > 1000 nM
